#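 Cultured in 96-well plates, cells were exposed to test compound for 48 hours across five concentrations. At the GI50, growth is halved. TGI: total growth inhibition.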
# Tests used:
# Test in all cases: NCI anticancer screen, dose series, 48 h
# M14 melanoma = tested on: M14 melanoma
# PC-3 prostate = tested on: PC-3 prostate
# 786-0 renal = tested on: 786-0 renal
# NCI-H522 lung = tested on: NCI-H522 lung
# UACC-62 melanoma = tested on: UACC-62 melanoma
# ACHN renal = tested on: ACHN renal
# HCT-116 colon = tested on: HCT-116 colon
# TK-10 renal = tested on: TK-10 renal
# A549 NSCLC = tested on: A549 NSCLC
# CAKI-1 renal = tested on: CAKI-1 renal
Compound,GI50 (M14 melanoma) [µM],TGI (M14 melanoma) [µM],GI50 (PC-3 prostate) [µM],TGI (PC-3 prostate) [µM],GI50 (786-0 renal) [µM],TGI (786-0 renal) [µM],GI50 (NCI-H522 lung) [µM],TGI (NCI-H522 lung) [µM],GI50 (UACC-62 melanoma) [µM],TGI (UACC-62 melanoma) [µM],GI50 (ACHN renal) [µM],TGI (ACHN renal) [µM],GI50 (HCT-116 colon) [µM],TGI (HCT-116 colon) [µM],GI50 (TK-10 renal) [µM],TGI (TK-10 renal) [µM],GI50 (A549 NSCLC) [µM],TGI (A549 NSCLC) [µM],GI50 (CAKI-1 renal) [µM],TGI (CAKI-1 renal) [µM]
O=C(/C=C/C12c3ccccc3C(c3ccccc31)C1C(=O)NC(=O)C12)c1ccco1 (stereo not given),3.1,11.2,1.74,5,3.28,10.8,1.84,3.75,2.16,4.9,3.63,12.3,1.69,3.74,3.7,10.9,3.25,10.1,3.74,14
C/C(=C\c1ccn(-c2ccc(N)cc2C(F)(F)F)n1)[C@@H]1C[C@@H]2O[C@]2(C)CCC[C@H](C)[C@H](O)[C@@H](C)C(=O)C(C)(C)[C@@H](O)CC(=O)O1,0.242,1.56,0.406,> 11.1,0.569,> 11.1,0.178,0.428,0.488,> 11.1,0.512,> 11.1,0.201,> 11.1,0.612,> 11.1,0.508,> 11.1,7.81,> 11.1
CN(C)c1ccc2[nH]c(O)c(C=Nc3ccc(S(N)(=O)=O)cc3)c2c1,> 25,> 25,> 25,> 25,> 25,> 25,> 25,> 25,> 25,> 25,> 25,> 25,20.3,> 25,> 25,> 25,> 25,> 25,> 25,> 25
COc1ccc2c(c1)C(=O)c1c-2c(N2CCN(C(=O)CN(C)C)CC2)nc2ccccc12,15.6,31.5,14.4,31.5,14.4,33.7,13.7,30.6,15.3,37.3,16,33.2,11.6,26.3,14.1,37.6,13.8,37,47.9,> 100
CN1CCN(Cc2ccc(NC(=O)c3[nH]ncc3Nc3ccnc4ccsc34)cc2)CC1,3.69,16.9,3.25,20.2,3.84,13.6,1.98,13.5,11.2,30.2,2.66,9.9,1.51,11.7,4.97,23.1,3.04,14.5,6.04,27.6
CCSc1nc(=S)[nH]c2[nH]ncc12,> 100,> 100,> 100,> 100,> 100,> 100,46.1,> 100,66.3,> 100,93.6,> 100,> 100,> 100,88.9,> 100,> 100,> 100,50.8,> 100
C[C@]12CC[C@H]3[C@@H](CC=C4C[C@@H](O)CC[C@@]43C)[C@@H]1C/C(=C\c1cccc(OCCCn3ccnc3)c1)[C@@H]2O,13.4,35.7,9.48,56.6,10.5,35,14.6,27.7,13.2,29,13.9,31.3,5.99,21.1,16.6,31.3,12.9,28.5,13.8,34.5
CCCN1C(=O)/C(=C/c2ccc(O)cc2)SC1=Nc1ccccc1,48.7,> 100,28.9,59.8,20.5,36.9,39.7,> 100,21,45.3,18.2,34.9,17.5,31.3,18.6,38.5,23.9,58.2,21.6,38.8
